Experimental data from patent US10632127B2, “Targeted notch pathway inhibitors” (Hoffmann-La Roche Inc., priority 2015, dated 2020).

What was measured:
[1] = tested on: Notch1 and cleaved Notch1; experiment: Immunohistochemistry of Notch1 and cleaved Notch1 in kidneys of mice exposed to aristolochic acid; assay type: in vivo, mouse; conditions: for Notch1 and cleaved Notch1 in kidneys (immunohistochemistry): AA-exposed mice, 11a 10 mg/kg b.i.d. or 13a 30 mg/kg b.i.d. i.p., day 7, versus AA-treated mice without prodrug; for modification of Notch or cleaved Notch levels in the kidneys: healthy wild-type mice, compound injected alone (results not shown)
Experimental: FIG. 3. Expression of Notch1 and active cleaved Notch1 determined by immuno-histochemistry in kidneys of mice exposed to aristolochic acid (AA) and treated either with the amine-SecrI (11a) or with Ac-γ-Glu-SecrI (13a).
Sections (7 μm) of snap-frozen kidneys were exposed to an anti-γ-secretase-cleaved Notch (cNotch) antibody, followed by the […] staining. Immunostaining is visualized as dark precipitate.
All experiments with animals were conducted in accordance with federal and local regulation at the respective study location. Kidney injury was induced by intraperitoneal (i.p). injection of aristolochic acid (AA, Sigma-Aldrich, 1×5 mg/kg) in 10 weeks old BALB/c male mice. The γ-secretase inhibitors prodrugs were diluted in NaCl 0.9% and administered i.p., starting one day before the injection of AA (day −1) and then twice daily until day 6 evening (n=5 mice/experimental group). At day 7 morning (12 h after the last prodrug injection), blood was collected and the mice were sacrificed to remove the liver and both kidneys. The kidneys were cut in four fragments. One fragment was immediately frozen in liquid nitrogen, one fragment was included in OCT (Tissue-Tek, VWR International, Switzerland) and frozen, one fragment was frozen at −80° C. and one fragment was fixed in 4% paraformaldehyde and included in paraffin.
OCT-embedded frozen kidneys were cut at 7 μm. The sections were air dried, fixed for 10 min in cold (−20° C.). methanol, rinsed in PBS 0.1% Triton x-100 (PBS/Triton), and blocked for 30 min with PBS/Triton containing 5% bovine serum albumin (BSA). The rabbit anti-Notch1 antibody (D1E11, diluted 1/50) and the rabbit anti-cleaved Notch1 antibody (Val1744, diluted 1/50) were purchased from Cell Signaling, the biotinylated anti-rabbit antibody from Vector Laboratories (diluted 1/500) and streptavidin/HRP (diluted 1/500) from Dako. The primary antibodies were diluted in PBS containing 5% BSA and were incubated with the sections for 1 h at RT. Endogenous peroxidase and biotin were blocked using 3% H2O2 and Avidin/Biotin blocking kit (Vector Laboratories), respectively. The slides were rinsed with PBS/Triton three times and incubated for 1 h at RT with anti-rabbit biotin secondary antibody diluted in the same buffer as for primary antibodies. After three washes with PBS, slides were incubated with streptavidin/HRP antibody for 1 h at RT, then 3,3′diaminobenzidine (DAB, Dako) was added for 15 min. The slides were washed in distilled water, mounted in Aquamount and analyzed.
To investigate potential nephroprotective effects of Notch blockade using γ-secretase inhibition and to evaluate the effects of our enzyme-targeted prodrug strategy, we used the in vivo AA mouse model of acute renal tubular damage. […]

γ-GT = experiment: Histoenzymography of γ-GT activity in ex-vivo mouse kidneys; assay type: biochemical; conditions: ex-vivo kidneys of non-diseased BALB/c mice
Experimental: FIG. 2B. Selective inhibition of the enzymatic activities of APA and yGT by the γ-secretase analogues determined by histoenzymography in the kidneys of non diseased BALB/c mice.
Evaluation by histoenzymography of APA and γ-GT enzymatic activities on frozen tissue was performed as described in Juillerat-Jeanneret, L. et al., Lab. Invest. 2000, 80, 973-980. Briefly, OCT-embedded frozen kidneys were cut in 7 μm sections in a cryostat, fixed for 5 min in cold (−20° C.) acetone, air dried at RT and rehydrated for 5 min in 0.9% NaCl. Naphthylamide substrates were obtained from commercial sources (α-Glu-4-methoxy-β-naphtylamide (APA) from Bachem; and γ-Glu-4-methoxy-β-naphtylamide (γ-GT) from Serva). Substrates (1 mg) were dissolved in 1 ml DMF and 2 mg Fast Blue B (Sigma-Aldrich) was dissolved in 2 ml 0.2M cacodylate buffer pH 7.4 containing 700 mg/l CaCl2; then both solutions were slowly mixed immediately before use and the pH adjusted to 6.5-7.0. […] The slides were washed in distilled water, counter-stained with hematoxylin (Mayer) for 1 min, rinsed under tap water, then with Scott solution for 1 min, rinsed under tap water, mounted in Aquamount (Immu-mount, Thermo Shandon Pittsburgh, Pa., USA) and analyzed with a Nikon Eclipse E800 microscope and digital DXM1200 camera using ACT-1 software. […]

Compound | Notch1 and cleaved Notch1 in kidneys (immunohistochemistry) [1] | modification of Notch or cleaved Notch levels in the kidneys [1] | inhibition of γ-GT-like activity (hydrolysis of γ-Glu-naphthylamide) (γ-GT)
C[C@H]1Oc2ccc(F)cc2N(CCOC(=O)NCCN)C(=O)[C@H]1NC(=O)[C@@](C)(O)C(=O)NCC(F)(F)C(F)(F)F.Cl [Compound 11a, 2-((2R,3S)-7-Fluoro-3-((S)-2-hydroxy-2-methyl-3-oxo-3-(2,2,3,3,3-pentafluoropropylamino)propanamido)-2-methyl-4-oxo-3,4-dihydrobenzo[b][1,4]oxazepin-5(2H)-yl)ethyl 2-aminoethylcarbamate hydrochloride] | reduced | Neither (11a) nor (13a) injected alone induced any modification | –
CC(=O)N[C@@H](CCC(=O)NCCNC(=O)OCCN1C(=O)[C@@H](NC(=O)[C@@](C)(O)C(=O)NCC(F)(F)C(F)(F)F)[C@@H](C)Oc2ccc(F)cc21)C(=O)O [Compound 13a, (S)-2-acetamido-5-(2-((2-((2R,3S)-7-fluoro-3-((S)-2-hydroxy-2-methyl-3-oxo-3-(2,2,3,3,3-pentafluoropropylamino)propanamido)-2-methyl-4-oxo-3,4-dihydrobenzo[b][1,4]oxazepin-5(2H)-yl)ethoxy)carbonylamino)ethylamino)-5-oxopentanoic acid] | reduced | Neither (11a) nor (13a) injected alone induced any modification | able to inhibit γ-GT-like activity
